Tests used:
RH30 cells = test: MTT cell viability assay, RH30; assay type: cell-based, human; settings: RH30 (aRMS), 48 h
Description: (§1) RH30 human aRMS cells (kindly provided by Associate Professor Judith Davie, Southern Illinois University), AX-OH-1 human aRMS and FL-OH-1 human eRMS cells (kindly provided by Professor Stefan Bath, University of Cape Town) were cultured in Roswell Park Memorial Institute Medium (RPMI)-1640 (Sigma Aldrich, Missouri, USA). […] Cell morphology was monitored using an Olympus CKX41 inverted microscope (MSAC Ltd, UK) and imaged with an EVOS™ XL AMEX1000 Core Imaging System (Thermo Fisher Scientific, Massachusetts, USA).
(§2) Cells were seeded in 96-well plates and treated the next day with a range of AJ-5 concentrations (0.1–1.0 μM) or vehicle ([…]) for 48 h. Cell viability was measured using the 3-(4,5-dimethylthiazol-2-yl)-2,5-diphenyl-trazolium bromide (MTT) assay (11465007001; Sigma Aldrich) according to the manufacturer’s instructions. Mean cell viability was calculated as a percentage of the mean vehicle control. At least three independent experiments in quadruplicate were performed from which the half maximal inhibitory concentration (IC50) was determined using GraphPad Prism version 6.0 (GraphPad Software, California, USA). The selectivity index (SI) was determined by dividing the IC50 of a normal cell line by the IC50 of a cancer cell line.

AX-OH-1 cells = test: MTT cell viability assay, AX-OH-1; assay type: cell-based, human; settings: AX-OH-1 (aRMS), 48 h
Description: as §1, §2

FL-OH-1 cells = test: MTT cell viability assay, FL-OH-1; assay type: cell-based, human; settings: FL-OH-1 (eRMS), 48 h
Description: as §1, §2

aRMS and eRMS cells = test: MTT cell viability assay, RMS cell lines (summary statements); assay type: cell-based, human; settings: alveolar and embryonal RMS cells
Description: as §1, §2

SW872 cells = test: MTT cell viability assay, SW872 liposarcoma; assay type: cell-based, human; settings: 48 h
MG-63 cells = test: MTT cell viability assay, MG-63 osteosarcoma; assay type: cell-based, human; settings: 48 h
C2C12 cells = test: Clonogenic assay, C2C12 myoblasts; assay type: cell-based, mouse; settings: 24 h of 0.3 µM
Description: Cells were seeded in 6-well plates and treated the following day with IC50, ½ IC50, ¼ IC50 AJ-5 and vehicle. After 24 h, 800–4000 cells were seeded in 35 mm dishes in drug-free medium. Formation of colonies were monitored and after 7–21 days cells were fixed with 3:1 methanol:acetic acid and stained with 0.5% crystal violet (Sigma Aldrich) in 100% methanol. Colonies were imaged and percentage colony area was determined using ImageJ v1.50i[58] and the plugin ColonyArea[59]. Colony area was determined for each drug concentration and expressed as a percentage of vehicletreated control.

[1] = tested on: RMS cells (RH30, AX-OH-1, RD, FL-OH-1); test: Scratch motility assay, RMS cells; assay type: cell-based, human; settings: 24 h pre-treatment at IC50, all RMS cells tested
Description: Cells were seeded in 6-well plates and treated with IC50 AJ-5 and vehicle for 24 h. Cells were then collected, counted and replated to achieve 100% confluency in a 24-well plate. The following day a sterile 2 µL pipette tip was used to make a vertical scratch in the cell monolayer of each well and the cells treated with 10 µM mitomycin C (M4287; Sigma Aldrich) to inhibit proliferation. Cells were imaged at 0, 3, 6, 9, 12 and 24 h post wound formation and ImageJ v1.50i[58] was used to calculate the area of the scratch. The total areas migrated was determined by subtracting the area for a specific time point from the area measured at 0h.

RD cells = test: Single-cell autophagosome flux analyses; assay type: cell-based, human; settings: IC50 48 h
Description: The autophagosome flux was calculated from the rate of autophagosome accumulation as previously described. Briefly, this was determined after the complete inhibition of fusion between autophagosomes and lysosomes using 400 nM bafilomycin A1 (B0025; LKT Laboratories Inc., Minnesota, USA).
Cells were transfected with a GFP-LC3 construct using Lipofectamine 3000 (L3000001; Thermo Fisher Scientific) according to the manufacturer’s instructions and maintained for 2 days in order to achieve high levels of GFP-LC3 expression.
Autophagosome, autolysosome and lysosome pool size was assessed by supplementing the culture media with 25 nM LysoTracker Red (L7528; Thermo Fisher Scientific) 2 h prior to image acquisition. An LSM 780 confocal with ELYRA S.1 Superresolution platform (Carl Zeiss) was used for image acquisition. The eight-chamber dish was placed in a heated chamber maintained at 5% CO2 that encased the microscope objective. An LCI Plan-Apochromat ×63/1.4 oil DIC M27 objective was used and samples were excited with an Argon multiline laser 25 mW at 488 and 514 nm with appropriate beam splitters and GaAsP detector 32+2 PMT. Multiple z layers were acquired with […] step width. Laser power and electron gain were set to achieve an optimal signal to noise ratio without causing photo-toxicity. […]

`CC(C)c1cccc(C(C)C)c1[N+]1=Cc2cccc[c]2[Pd-2]1([Cl])[P+](CC[P+](c1ccccc1)(c1ccccc1)[Pd-2]1([Cl])[c]2ccccc2C=[N+]1c1c(C(C)C)cccc1C(C)C)(c1ccccc1)c1ccccc1` (stereo not drawn) [AJ-5] gave an IC50 (RH30 cells) of at most 200 nM, an IC50 (AX-OH-1 cells) of at most 200 nM and an IC50 (FL-OH-1 cells) of at most 200 nM. The IC50 (aRMS and eRMS cells) was at most 200 nM, the IC50 (SW872 cells) was under 300 nM and the IC50 (MG-63 cells) was under 300 nM. The “Ability of C2C12 myoblasts to survive and proliferate (colony area)” value (C2C12 cells) was “not significantly hindered”, the “Migratory ability (area migrated)” value [1] was “reduced the migratory ability” and the “Autolysosome pool size and autophagosome flux J” value (RD cells) was “significantly decreased”.

Source: article PMC6349869, “The palladacycle complex AJ-5 induces apoptotic cell death while reducing autophagic flux in rhabdomyosarcoma cells” (Cell Death Discovery, 2019)
